From ChEMBL document CHEMBL1201862, “PubChem BioAssay data set” (2004)
The source made the active and inactive calls.

Assays:
[1] = test system: CHO-K1; assay: (§1) Counterscreen for antagonists of the orexin 1 receptor (OX1R; HCRTR1): Homogeneous time resolved fluorescence (HTRF)-based cell-based dose response assay to identify antagonists of the parental CHO-K1 cell line. [Related pubchem assays (depositor defined):AID434989, AID435008, AID463079, AID485270, AID492963, AID492964, AID492965, AID493232, AID504699, AID504701]; assay type: functional; conditions: Cricetulus griseus
[2] = as §1, with “Fluorescence-based” for “Homogeneous time resolved fluorescence (HTRF)-based”, “cell-based high throughput” for “cell-based”, “CHO” for “CHO-K1”; assay type: functional
[3] = target: T1, Orexin/Hypocretin receptor type 1 (Homo sapiens, UniProt O43613); assay: Homogeneous Time Resolved Fluorescence (HTRF)-based cell-based high throughput dose response assay for antagonists of the orexin 1 receptor (OX1R; HCRTR1). [Related pubchem assays (depositor defined):AID434989, AID435008, AID463079, AID485270, AID492963, AID492964, AID492965, AID493232, AID504717, AID504718]; assay type: functional
T1 sequence (O43613 whole entry): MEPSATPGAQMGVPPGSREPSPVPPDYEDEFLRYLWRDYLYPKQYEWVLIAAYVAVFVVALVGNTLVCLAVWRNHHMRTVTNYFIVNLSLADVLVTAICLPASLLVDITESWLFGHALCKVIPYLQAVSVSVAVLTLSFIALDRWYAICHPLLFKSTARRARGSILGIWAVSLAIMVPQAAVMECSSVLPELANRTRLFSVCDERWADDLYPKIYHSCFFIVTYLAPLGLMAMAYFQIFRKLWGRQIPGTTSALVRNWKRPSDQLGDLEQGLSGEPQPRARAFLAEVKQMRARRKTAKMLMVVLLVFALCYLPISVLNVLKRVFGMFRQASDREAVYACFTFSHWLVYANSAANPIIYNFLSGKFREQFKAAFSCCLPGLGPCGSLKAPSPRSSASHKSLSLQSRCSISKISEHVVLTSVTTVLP

[4] = target: T1, Orexin/Hypocretin receptor type 1; assay: Fluorescence-based cell-based high throughput dose response assay for antagonists of the orexin 1 receptor (OX1R; HCRTR1). [Related pubchem assays (depositor defined):AID434989, AID435008, AID463079, AID485270, AID492963, AID492964, AID492965, AID493232, AID504717, AID504718]; assay type: functional
[5] = target: T2, Orexin receptor type 2 (Homo sapiens, UniProt O43614); assay: Counterscreen assay for antagonists of the orexin 1 receptor (OX1R; HCRTR1): Fluorescence-based cell-based dose response assay for antagonists of the orexin 2 receptor (OX2R; HCRTR2), run by assay provider.; assay type: functional
T2 sequence (O43614 whole entry): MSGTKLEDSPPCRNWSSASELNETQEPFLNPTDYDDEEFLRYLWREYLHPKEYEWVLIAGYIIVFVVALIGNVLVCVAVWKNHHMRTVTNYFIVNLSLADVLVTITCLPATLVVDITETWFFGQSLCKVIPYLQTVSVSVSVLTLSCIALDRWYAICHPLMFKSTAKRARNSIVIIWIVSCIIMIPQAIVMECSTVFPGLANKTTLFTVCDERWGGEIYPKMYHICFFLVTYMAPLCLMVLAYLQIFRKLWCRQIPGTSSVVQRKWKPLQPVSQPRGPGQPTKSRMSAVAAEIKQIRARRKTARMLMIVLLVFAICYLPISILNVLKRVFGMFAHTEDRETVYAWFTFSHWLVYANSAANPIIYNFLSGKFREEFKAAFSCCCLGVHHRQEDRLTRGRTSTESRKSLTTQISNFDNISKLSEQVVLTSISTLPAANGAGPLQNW

[6] = target: T2, Orexin receptor type 2; assay: Counterscreen assay for antagonists of the orexin 1 receptor (OX1R; HCRTR1): Homogeneous Time Resolved Fluorescence (HTRF)-based cell-based dose response assay for antagonists of the orexin 2 receptor (OX2R; HCRTR2), run by assay provider.; assay type: functional
[7] = target: T3, DNA repair and recombination protein RAD54-like (Homo sapiens, UniProt Q92698); assay: inhibitors of human RAD54 branch migration, confirmation, biochemical, fluorescence, cherry-picked samples, dose series (AID 651657); assay type: functional
T3 sequence (Q92698 whole entry): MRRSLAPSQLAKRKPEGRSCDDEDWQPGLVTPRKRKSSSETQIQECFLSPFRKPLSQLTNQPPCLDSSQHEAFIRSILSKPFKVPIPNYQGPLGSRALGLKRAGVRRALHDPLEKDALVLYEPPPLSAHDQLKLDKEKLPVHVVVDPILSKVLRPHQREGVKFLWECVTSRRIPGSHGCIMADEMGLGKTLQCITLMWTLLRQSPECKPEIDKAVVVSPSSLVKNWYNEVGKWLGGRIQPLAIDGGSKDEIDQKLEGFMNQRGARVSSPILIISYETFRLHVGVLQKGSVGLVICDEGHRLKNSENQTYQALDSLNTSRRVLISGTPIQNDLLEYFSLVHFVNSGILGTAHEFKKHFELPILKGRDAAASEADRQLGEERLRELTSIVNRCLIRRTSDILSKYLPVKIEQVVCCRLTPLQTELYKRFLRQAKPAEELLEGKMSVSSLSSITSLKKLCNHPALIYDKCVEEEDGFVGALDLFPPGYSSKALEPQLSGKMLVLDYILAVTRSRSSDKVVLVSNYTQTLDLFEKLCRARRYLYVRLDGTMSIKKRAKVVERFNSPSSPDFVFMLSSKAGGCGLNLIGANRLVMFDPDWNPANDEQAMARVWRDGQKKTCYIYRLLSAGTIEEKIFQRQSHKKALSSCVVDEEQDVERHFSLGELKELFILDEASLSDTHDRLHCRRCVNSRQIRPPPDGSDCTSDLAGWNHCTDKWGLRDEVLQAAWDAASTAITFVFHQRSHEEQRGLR

[8] = target: T4, Tyrosine-protein phosphatase non-receptor type 11 (Homo sapiens, UniProt Q06124); assay: SHP2 phosphatase inhibition, dose response, selectivity assay for STEP inhibitor project, biochemical (AID 602367); assay type: functional; conditions: read-out: IC50_Mean
T4 sequence (Q06124 whole entry): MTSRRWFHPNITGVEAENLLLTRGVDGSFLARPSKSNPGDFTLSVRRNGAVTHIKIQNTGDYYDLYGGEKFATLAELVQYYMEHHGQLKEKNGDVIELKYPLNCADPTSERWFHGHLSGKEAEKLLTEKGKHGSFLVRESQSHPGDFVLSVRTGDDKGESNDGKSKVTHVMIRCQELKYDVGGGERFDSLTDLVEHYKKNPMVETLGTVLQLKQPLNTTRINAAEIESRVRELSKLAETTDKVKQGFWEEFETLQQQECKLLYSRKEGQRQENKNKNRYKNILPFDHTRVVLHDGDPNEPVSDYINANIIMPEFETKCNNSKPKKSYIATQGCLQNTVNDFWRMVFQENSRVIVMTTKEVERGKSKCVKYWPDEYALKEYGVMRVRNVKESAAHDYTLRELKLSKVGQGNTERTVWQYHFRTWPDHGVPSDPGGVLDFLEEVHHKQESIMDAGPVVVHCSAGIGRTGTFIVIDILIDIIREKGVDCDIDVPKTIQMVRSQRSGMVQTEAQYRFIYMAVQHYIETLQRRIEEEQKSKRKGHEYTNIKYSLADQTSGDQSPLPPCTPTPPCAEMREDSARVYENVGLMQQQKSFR

[9] = target: T5, Tyrosine-protein phosphatase non-receptor type 5 (Homo sapiens, UniProt P54829); assay: STEP phosphatase inhibitors, confirmation, biochemical, fluorescence intensity, uHTS hits (AID 602372); assay type: functional; conditions: read-out: IC50_Mean
T5 sequence (P54829 whole entry): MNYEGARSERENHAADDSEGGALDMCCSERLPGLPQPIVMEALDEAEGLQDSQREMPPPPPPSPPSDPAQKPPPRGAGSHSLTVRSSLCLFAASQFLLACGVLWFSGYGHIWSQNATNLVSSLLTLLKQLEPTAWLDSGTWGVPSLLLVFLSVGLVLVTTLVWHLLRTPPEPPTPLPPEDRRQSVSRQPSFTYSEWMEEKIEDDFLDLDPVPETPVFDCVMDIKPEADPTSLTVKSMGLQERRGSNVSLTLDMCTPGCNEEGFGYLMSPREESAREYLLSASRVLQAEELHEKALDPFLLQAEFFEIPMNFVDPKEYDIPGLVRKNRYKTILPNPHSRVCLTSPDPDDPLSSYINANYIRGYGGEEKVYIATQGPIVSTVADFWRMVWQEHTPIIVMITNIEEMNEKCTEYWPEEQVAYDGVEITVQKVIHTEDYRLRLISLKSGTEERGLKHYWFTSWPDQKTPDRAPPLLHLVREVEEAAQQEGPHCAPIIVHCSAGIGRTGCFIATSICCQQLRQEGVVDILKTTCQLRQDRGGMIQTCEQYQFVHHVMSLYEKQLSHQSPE

[10] = target: Dual specificity protein phosphatase 3 (Homo sapiens, UniProt P51452); assay: VHR phosphatase inhibition, dose response, selectivity assay for STEP inhibitor project, biochemical (AID 602374); assay type: functional; conditions: read-out: IC50_Mean
Chain of Dual specificity protein phosphatase 3 (P51452 whole entry): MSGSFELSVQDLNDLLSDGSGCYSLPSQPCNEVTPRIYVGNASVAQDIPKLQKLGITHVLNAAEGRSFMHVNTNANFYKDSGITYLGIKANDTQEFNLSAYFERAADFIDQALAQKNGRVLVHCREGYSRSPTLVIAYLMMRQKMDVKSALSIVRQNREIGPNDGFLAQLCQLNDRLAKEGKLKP

[11] = intracellular Trypanosoma cruzi inhibitors in host cells – cell-based, plate reader, cherry-pick samples, set 3, dose response (AID 651818); assay type: functional;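 also: compounds incubated with infected cells for about four days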
[12] = target: T6, Histone-lysine N-methyltransferase NSD2 (Homo sapiens, UniProt O96028); assay type: biochemical
T6 sequence (O96028 whole entry): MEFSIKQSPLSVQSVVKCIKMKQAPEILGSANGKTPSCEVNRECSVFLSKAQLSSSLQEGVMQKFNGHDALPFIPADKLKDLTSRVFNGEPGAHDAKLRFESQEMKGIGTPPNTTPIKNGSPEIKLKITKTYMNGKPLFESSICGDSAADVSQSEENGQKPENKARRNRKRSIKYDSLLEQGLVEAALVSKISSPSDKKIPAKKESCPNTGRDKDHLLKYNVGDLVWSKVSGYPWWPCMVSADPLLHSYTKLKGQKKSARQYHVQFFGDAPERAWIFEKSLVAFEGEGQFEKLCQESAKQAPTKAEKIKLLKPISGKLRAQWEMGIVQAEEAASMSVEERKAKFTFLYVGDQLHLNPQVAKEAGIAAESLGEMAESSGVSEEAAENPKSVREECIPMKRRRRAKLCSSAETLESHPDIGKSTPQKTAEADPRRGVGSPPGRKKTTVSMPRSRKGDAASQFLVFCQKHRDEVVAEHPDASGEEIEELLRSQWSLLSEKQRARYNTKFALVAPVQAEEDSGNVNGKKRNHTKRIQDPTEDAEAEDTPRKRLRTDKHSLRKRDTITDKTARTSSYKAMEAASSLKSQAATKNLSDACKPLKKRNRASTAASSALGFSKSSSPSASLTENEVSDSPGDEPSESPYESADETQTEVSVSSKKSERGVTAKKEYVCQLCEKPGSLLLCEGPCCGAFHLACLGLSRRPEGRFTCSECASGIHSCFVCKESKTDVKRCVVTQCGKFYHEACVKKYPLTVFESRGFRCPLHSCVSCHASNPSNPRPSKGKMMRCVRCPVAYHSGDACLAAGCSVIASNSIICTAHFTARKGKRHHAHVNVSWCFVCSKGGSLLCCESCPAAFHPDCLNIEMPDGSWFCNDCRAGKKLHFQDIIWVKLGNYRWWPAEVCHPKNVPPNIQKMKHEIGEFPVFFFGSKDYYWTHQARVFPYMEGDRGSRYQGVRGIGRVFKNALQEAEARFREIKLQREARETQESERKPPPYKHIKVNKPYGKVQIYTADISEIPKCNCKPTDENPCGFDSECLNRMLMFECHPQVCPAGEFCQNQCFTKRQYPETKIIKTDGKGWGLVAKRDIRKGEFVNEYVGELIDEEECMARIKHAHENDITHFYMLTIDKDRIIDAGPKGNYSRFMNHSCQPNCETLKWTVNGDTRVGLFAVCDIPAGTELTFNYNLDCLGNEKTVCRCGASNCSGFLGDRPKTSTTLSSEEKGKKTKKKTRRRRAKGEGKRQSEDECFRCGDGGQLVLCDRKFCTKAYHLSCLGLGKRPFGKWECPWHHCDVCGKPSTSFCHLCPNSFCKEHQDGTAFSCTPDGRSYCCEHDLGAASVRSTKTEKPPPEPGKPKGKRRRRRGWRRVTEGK

Cc1c(C(=O)Nc2ccc(N3CCOCC3)cc2)oc2ccccc12
IC50 [1]: > 66.2 µM (inactive) | IC50 [2]: > 49.8 µM (inactive) | IC50 [3]: 0.277 µM (active) | IC50 [4]: 1.46 µM (active) | IC50 [5]: > 88.8 µM (inactive) | IC50 [6]: > 50 µM (inactive)

CCCN(CCC)CCCNC(=O)c1cc2c(O)nc3ccccc3c2s1
AC50 [7]: 71.6 µM (active)

COc1ccc(NC(=S)NCCCN2CCCC2)cc1Cl
IC50 [8]: 1.89 µM (active) | IC50 [9]: 16.4 µM (active) | IC50 [10]: 1.12 µM (active)

O=C(N/N=C/c1c(Cl)[nH]c2ccccc12)c1sc2ccccc2c1Cl
IC50 [1]: > 66.2 µM (inactive) | IC50 [2]: > 49.7 µM (inactive) | IC50 [3]: 2.14 µM (active) | IC50 [4]: 3.23 µM (active) | IC50 [5]: > 88.8 µM (inactive) | IC50 [6]: 6.88 µM (active)

C[C@@H]1CN([C@H](C)CO)C(=O)c2cc(N(C)C)ccc2O[C@@H]1CN(C)Cc1ccc(C(=O)Nc2ccccc2N)cc1
AC50 [11]: 3.19 µM (active)

C[C@@H]1CN([C@H](C)CO)C(=O)c2cccc(NS(=O)(=O)c3ccc(F)cc3)c2O[C@@H]1CN(C)C(=O)Nc1ccc(C(F)(F)F)cc1
AC50 [11]: 4.16 µM (active)

C[C@@H]1CN([C@@H](C)CO)C(=O)Cc2cc(NC(=O)Nc3ccc(C(F)(F)F)cc3)ccc2O[C@@H]1CN(C)Cc1ccc(C(=O)Nc2ccccc2N)cc1
AC50 [11]: 1.8 µM (active)

CC(C)NC1CCC(Nc2ccnc3cc(Cl)ccc23)CC1 (stereo unspecified)
AC50 [7]: 25.7 µM (active) | AC50 [12]: > 20 µM (inactive)
